Source: ChEMBL document CHEMBL1159372, “Two flavone C-glycosides from the style of Zea mays with glycation inhibitory activity” (J Nat Prod, 2003)

Assay: Inhibition of advanced glycation end product formation at 1 mM after 7 days by fluorescence assay
Format: physicochemical
Conditions: 168 h, 1000 µM

inhibition (INH)	SMILES
53%	COc1cc(-c2cc(=O)c3c(O)c([C@H]4C[C@@H](O)[C@H](O)[C@H](C)O4)c(O[C@@H]4O[C@H](CO)[C@@H](O)[C@H](O)[C@H]4O)cc3o2)ccc1O
64.2%	COc1cc(-c2cc(=O)c3c(O)c([C@H]4C[C@@H](O)[C@H](O)[C@H](C)O4)c(O)cc3o2)ccc1O

SMILES	inhibition (INH)
N=C(N)NN [PIMAGEDINE]	60.5%
